Experimental findings from paper PMC6934184, “Selective DNA-PKcs inhibition extends the therapeutic index of localized radiotherapy and chemotherapy” (The Journal of Clinical Investigation, 2019) are described below.

This experiment has as its target T1, ROCK1 (Homo sapiens, UniProt Q13464).
T1 construct: purchased Thermo Fisher Scientific (Life Technologies) SelectScreen
The experiment in a line: SelectScreen Z'LYTE. The class given is biochemical. The gist of the method:
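SelectScreen broad panel; activity (Z'LYTE, Adapta) plus binding formats. ATP: Km app for CSF1R Z'LYTE; 10 for CAMK1 Adapta. Readout = % per kinase.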

T1 sequence (Q13464 whole entry): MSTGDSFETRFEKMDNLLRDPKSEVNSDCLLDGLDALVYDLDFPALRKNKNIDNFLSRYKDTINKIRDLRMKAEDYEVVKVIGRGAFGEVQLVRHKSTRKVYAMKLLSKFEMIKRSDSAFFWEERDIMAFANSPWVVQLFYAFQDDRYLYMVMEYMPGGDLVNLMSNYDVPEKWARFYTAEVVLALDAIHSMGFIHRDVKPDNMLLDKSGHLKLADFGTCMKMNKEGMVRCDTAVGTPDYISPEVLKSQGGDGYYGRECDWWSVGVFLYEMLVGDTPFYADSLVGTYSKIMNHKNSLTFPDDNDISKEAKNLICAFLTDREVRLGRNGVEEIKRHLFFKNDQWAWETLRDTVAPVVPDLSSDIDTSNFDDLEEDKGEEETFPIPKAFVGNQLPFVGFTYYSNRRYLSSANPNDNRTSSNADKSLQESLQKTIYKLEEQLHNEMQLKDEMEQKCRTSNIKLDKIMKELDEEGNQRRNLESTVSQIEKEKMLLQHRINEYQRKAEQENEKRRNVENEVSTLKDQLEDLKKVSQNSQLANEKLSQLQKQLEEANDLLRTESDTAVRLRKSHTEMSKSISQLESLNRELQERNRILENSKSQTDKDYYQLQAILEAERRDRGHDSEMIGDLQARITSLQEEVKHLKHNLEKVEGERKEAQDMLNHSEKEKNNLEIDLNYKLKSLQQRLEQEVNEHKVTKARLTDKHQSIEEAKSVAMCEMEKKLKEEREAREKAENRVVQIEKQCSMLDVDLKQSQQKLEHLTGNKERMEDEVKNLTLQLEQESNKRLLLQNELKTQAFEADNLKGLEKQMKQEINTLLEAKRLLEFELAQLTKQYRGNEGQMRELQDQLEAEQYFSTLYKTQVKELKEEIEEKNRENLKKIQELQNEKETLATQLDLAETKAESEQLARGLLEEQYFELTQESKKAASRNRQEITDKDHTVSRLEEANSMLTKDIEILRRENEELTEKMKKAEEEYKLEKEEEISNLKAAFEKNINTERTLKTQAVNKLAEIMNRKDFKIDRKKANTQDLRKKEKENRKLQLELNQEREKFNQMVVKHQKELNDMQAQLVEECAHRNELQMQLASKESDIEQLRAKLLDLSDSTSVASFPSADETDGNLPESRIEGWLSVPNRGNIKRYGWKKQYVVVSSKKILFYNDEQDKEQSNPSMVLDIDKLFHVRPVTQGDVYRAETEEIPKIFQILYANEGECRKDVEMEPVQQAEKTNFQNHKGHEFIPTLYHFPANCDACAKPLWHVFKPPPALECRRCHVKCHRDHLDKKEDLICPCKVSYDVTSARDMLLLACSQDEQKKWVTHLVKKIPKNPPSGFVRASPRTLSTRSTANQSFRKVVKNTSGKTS

The term inhibition denotes the relative decrease from the control value, in per cent. In the case of `CN(C(=O)CN1CCOCC1)c1ccc2sc3c(-c4cccc5c(=O)cc(N6CC7CCC(C6)O7)oc45)cccc3c2c1` [NU5455], the inhibition at 1 µM was -9.5%.
